Assay results reported in patent publication US20260374782A1, “NEW COMPOUNDS, PROCESSES FOR PREPARING THE SAME AND THEIR USE AS DRUGS” (B&A ONCOMEDICAL, priority 2022, published 2026).

Biological target: T1, NKCC1 (Homo sapiens, UniProt P55011)
T1 construct: endogenous in cells; host or cells: native HEK293 cells
T1 sequence (P55011 1-1212): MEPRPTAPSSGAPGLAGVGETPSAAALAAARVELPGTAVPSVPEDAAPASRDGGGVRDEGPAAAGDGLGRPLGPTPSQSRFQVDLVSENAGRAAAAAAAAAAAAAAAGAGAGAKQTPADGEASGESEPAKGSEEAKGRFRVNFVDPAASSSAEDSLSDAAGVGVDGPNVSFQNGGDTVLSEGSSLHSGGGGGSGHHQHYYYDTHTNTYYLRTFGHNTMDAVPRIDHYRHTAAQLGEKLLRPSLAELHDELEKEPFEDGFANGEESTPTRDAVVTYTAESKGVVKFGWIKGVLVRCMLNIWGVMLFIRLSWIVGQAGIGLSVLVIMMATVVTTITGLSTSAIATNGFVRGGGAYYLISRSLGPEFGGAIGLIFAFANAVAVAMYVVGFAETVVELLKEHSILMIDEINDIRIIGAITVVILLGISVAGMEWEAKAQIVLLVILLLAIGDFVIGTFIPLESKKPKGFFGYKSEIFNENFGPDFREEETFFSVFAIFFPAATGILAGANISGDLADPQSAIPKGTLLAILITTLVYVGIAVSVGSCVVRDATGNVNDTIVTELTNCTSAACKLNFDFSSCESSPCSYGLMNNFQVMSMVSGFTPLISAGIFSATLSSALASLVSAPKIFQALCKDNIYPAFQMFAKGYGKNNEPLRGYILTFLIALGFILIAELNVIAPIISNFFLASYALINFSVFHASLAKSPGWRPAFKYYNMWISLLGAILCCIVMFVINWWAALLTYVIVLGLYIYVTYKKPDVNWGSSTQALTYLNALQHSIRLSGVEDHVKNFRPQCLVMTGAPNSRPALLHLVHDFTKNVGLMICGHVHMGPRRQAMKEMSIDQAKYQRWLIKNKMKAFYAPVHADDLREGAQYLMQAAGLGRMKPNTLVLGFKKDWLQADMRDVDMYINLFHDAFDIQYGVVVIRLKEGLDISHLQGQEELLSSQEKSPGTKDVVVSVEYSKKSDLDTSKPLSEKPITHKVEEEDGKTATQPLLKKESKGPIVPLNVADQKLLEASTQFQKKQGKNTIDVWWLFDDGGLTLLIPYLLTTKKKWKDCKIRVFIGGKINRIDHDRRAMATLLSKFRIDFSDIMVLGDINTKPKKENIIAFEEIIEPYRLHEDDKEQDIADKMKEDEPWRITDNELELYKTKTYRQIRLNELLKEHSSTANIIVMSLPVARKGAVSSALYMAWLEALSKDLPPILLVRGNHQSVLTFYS
Assay: NKCC1-mediated K+ influx (83Rb tracer uptake) in native HEK293 cells, hypertonic saline, 100 μM ouabain
Type: cell-based
Settings: HEK293, no drug = 1000, 20 μM bumetanide = 0; for inhibition at 2 µM: read-out: NKCC1 mediated flux inhibition at 2 μM (%); for inhibition at 20 µM: read-out: NKCC1 mediated flux inhibition at 20 μM (%)
Summary of the method: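 Native cells in slightly hypertonic saline with 100 μM ouabain; 15 min preincubation then 15 min 83Rb uptake (0.25 μCi/mL), scintillation counting normalized to protein. Compounds at 2 μM and 20 μM; flux scaled 1000 (no drug) to 0 (20 μM bumetanide), triplicate dishes.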

| Structure (SMILES) | inhibition at 2 µM [%] | inhibition at 20 µM [%] |
| --- | --- | --- |
| CCCCNc1cc(C(=O)O)cc(S(=N)(=O)N2CCC(c3ccccc3)CC2)c1Oc1ccccc1 (stereo not drawn) [Compound 66, 3-(butylamino)-4-phenoxy-5-[(4-phenyl-1-piperidyl)sulfonimidoyl]benzoic acid] | 30 to 50 | ≥ 75 |
| CCCCNc1cc(C(=O)O)cc(S(=N)(=O)Nc2ccn(C)n2)c1Oc1ccccc1 (stereo not drawn) [Compound 67, 3-(butylamino)-5-[[(1-methylpyrazol-3-yl)amino]sulfonimidoyl]-4-phenoxy-benzoic acid] | 50 to 75 | ≥ 75 |
| CCCCNc1cc(C(=O)O)cc(S(=N)(=O)NCc2cncnc2)c1Oc1ccccc1 (stereo not drawn) [Compound 68, 3-(butylamino)-4-phenoxy-5-[(pyrimidin-5-ylmethylamino)sulfonimidoyl]benzoic acid] | 50 to 75 | ≥ 75 |
| CCCCNc1cc(C(=O)O)cc(S(=N)(=O)N2CC3CCC(C2)O3)c1Oc1ccccc1 (stereo not drawn) [Compound 69, 3-(butylamino)-5-(8-oxa-3-azabicyclo[3.2.1]octan-3-ylsulfonimidoyl)-4-phenoxy-benzoic acid] | 50 to 75 | 50 to 75 |
| CCCCNc1cc(C(=O)O)cc(S(=N)(=O)Nc2cccc(Cl)c2)c1Oc1ccccc1 (stereo not drawn) [Compound 70, 3-(butylamino)-5-[(3-chloroanilino)sulfonimidoyl]-4-phenoxy-benzoic acid] | ≥ 75 | ≥ 75 |
| CCCCNc1cc(C(=O)O)cc(S(=N)(=O)NCc2cccc(Cl)c2)c1Oc1ccccc1 (stereo not drawn) [Compound 71, 3-(butylamino)-5-[[(3-chlorophenyl)methylamino]sulfonimidoyl]-4-phenoxy-benzoic acid] | ≥ 75 | ≥ 75 |
| CCCCNc1cc(C(=O)O)cc(S(=N)(=O)N2Cc3ccccc3C2)c1Oc1ccccc1 (stereo not drawn) [Compound 72, 3-(butylamino)-5-(isoindolin-2-ylsulfonimidoyl)-4-phenoxy-benzoic acid] | 50 to 75 | ≥ 75 |
| CCCCNc1cc(C(=O)O)cc(S(=N)(=O)Nc2cnccn2)c1Oc1ccccc1 (stereo not drawn) [Compound 73, 3-(butylamino)-4-phenoxy-5-[(pyrazin-2-ylamino)sulfonimidoyl]benzoic acid] | ≥ 75 | ≥ 75 |
| CCCCNc1cc(C(=O)O)cc(S(=N)(=O)Nc2cccc(OC(F)F)c2)c1Oc1ccccc1 (stereo not drawn) [Compound 74, 3-(butylamino)-5-[[3-(difluoromethoxy)anilino]sulfonimidoyl]-4-phenoxy-benzoic acid] | 50 to 75 | ≥ 75 |
| CCCCNc1cc(C(=O)O)cc(S(=N)(=O)NC2CCOCC2)c1Oc1ccccc1 (stereo not drawn) [Compound 75, 3-(butylamino)-4-phenoxy-5-[(tetrahydropyran-4-ylamino)sulfonimidoyl]benzoic acid] |  | 30 to 50 |
| CCCCNc1cc(C(=O)O)cc(S(=N)(=O)Nc2ncccn2)c1Oc1ccccc1 (stereo not drawn) [Compound 76, 3-(butylamino)-4-phenoxy-5-[(pyrimidin-2-ylamino)sulfonimidoyl]benzoic acid] | 10 to 30 | 50 to 75 |
| CCCCNc1cc(C(=O)O)cc(S(=N)(=O)Nc2ccccc2Cl)c1Oc1ccccc1 (stereo not drawn) [Compound 77, 3-(butylamino)-5-[(2-chloroanilino)sulfonimidoyl]-4-phenoxy-benzoic acid] | 30 to 50 | ≥ 75 |
| CCCCNc1cc(C(=O)O)cc(S(=N)(=O)Nc2ccc(Cl)cc2)c1Oc1ccccc1 (stereo not drawn) [Compound 78, 3-(butylamino)-5-[(4-chloroanilino)sulfonimidoyl]-4-phenoxy-benzoic acid] | 50 to 75 | ≥ 75 |
| CCCCNc1cc(C(=O)O)cc(S(=N)(=O)NC2CCN(C)CC2)c1Oc1ccccc1 (stereo not drawn) [Compound 79, 3-(butylamino)-5-[[(1-methyl-4-piperidyl)amino]sulfonimidoyl]-4-phenoxy-benzoic acid] | 30 to 50 | 50 to 75 |
| CCCCNc1cc(C(=O)O)cc(S(=N)(=O)Nc2cncnc2)c1Oc1ccccc1 (stereo not drawn) [Compound 80, 3-(butylamino)-4-phenoxy-5-[(pyrimidin-5-ylamino)sulfonimidoyl]benzoic acid] | 30 to 50 | ≥ 75 |
| CCCCNc1cc(C(=O)O)cc(S(=N)(=O)NCCc2ccccc2)c1Oc1ccccc1 (stereo not drawn) [Compound 81, 3-(butylamino)-4-phenoxy-5-[(2-phenylethylamino)sulfonimidoyl]benzoic acid] | 30 to 50 | ≥ 75 |
| CCCCNc1cc(C(=O)O)cc(S(=N)(=O)NCCc2cccc(Cl)c2)c1Oc1ccccc1 (stereo not drawn) [Compound 82, 3-(butylamino)-5-[[2-(3-chlorophenyl)ethylamino]sulfonimidoyl]-4-phenoxy-benzoic acid] | 10 to 30 | ≥ 75 |
| CCCCNc1cc(C(=O)O)cc(S(=N)(=O)NCc2cccnc2)c1Oc1ccccc1 (stereo not drawn) [Compound 83, 3-(butylamino)-4-phenoxy-5-[(3-pyridylmethylamino)sulfonimidoyl]benzoic acid] | 30 to 50 | ≥ 75 |
| CCCCNc1cc(C(=O)O)cc(S(=N)(=O)NCCc2cccnc2)c1Oc1ccccc1 (stereo not drawn) [Compound 84, 3-(butylamino)-4-phenoxy-5-[[2-(3-pyridyl)ethylamino]sulfonimidoyl]benzoic acid] | 10 to 30 | ≥ 75 |
| CCCCNc1cc(C(=O)O)cc(S(=N)(=O)NCc2nccs2)c1Oc1ccccc1 (stereo not drawn) [Compound 85, 3-(butylamino)-4-phenoxy-5-[(thiazol-2-ylmethylamino)sulfonimidoyl]benzoic acid] | 30 to 50 | ≥ 75 |
| CCCCNc1cc(C(=O)O)cc(S(=N)(=O)NCCc2nccs2)c1Oc1ccccc1 (stereo not drawn) [Compound 86, 3-(butylamino)-4-phenoxy-5-[(2-thiazol-2-ylethylamino)sulfonimidoyl]benzoic acid] | 50 to 75 | ≥ 75 |
| CCCCNc1cc(C(=O)O)cc(S(=N)(=O)NCc2ccn(C)n2)c1Oc1ccccc1 (stereo not drawn) [Compound 87, 3-(butylamino)-5-[[(1-methylpyrazol-3-yl)methylamino]sulfonimidoyl]-4-phenoxy-benzoic acid] | 50 to 75 | ≥ 75 |
| CCCCNc1cc(C(=O)O)cc(S(=N)(=O)Nc2nccn2C)c1Oc1ccccc1 (stereo not drawn) [Compound 88, 3-(butylamino)-5-[[(1-methylimidazol-2-yl)amino]sulfonimidoyl]-4-phenoxy-benzoic acid] |  | 50 to 75 |
| CCCCNc1cc(C(=O)O)cc(S(=N)(=O)Nc2ccccn2)c1Oc1ccccc1 (stereo not drawn) [Compound 89, 3-(butylamino)-4-phenoxy-5-[(2-pyridylamino)sulfonimidoyl]benzoic acid] | 30 to 50 | ≥ 75 |
| CCCCNc1cc(C(=O)O)cc(S(=N)(=O)Nc2nccs2)c1Oc1ccccc1 (stereo not drawn) [Compound 90, 3-(butylamino)-4-phenoxy-5-[(thiazol-2-ylamino)sulfonimidoyl]benzoic acid] | 30 to 50 | ≥ 75 |
| CCCCNc1cc(C(=O)O)cc(S(=N)(=O)Nc2ccncc2)c1Oc1ccccc1 (stereo not drawn) [Compound 91, 3-(butylamino)-4-phenoxy-5-[(4-pyridylamino)sulfonimidoyl]benzoic acid] | 30 to 50 | ≥ 75 |
| CCCCNc1cc(C(=O)O)cc(S(=N)(=O)NC2CCN(C(C)=O)CC2)c1Oc1ccccc1 (stereo not drawn) [Compound 92, 3-[[(1-acetyl-4-piperidyl)amino]sulfonimidoyl]-5-(butylamino)-4-phenoxy-benzoic acid] | 10 to 30 | 50 to 75 |
| CCCCNc1cc(C(=O)O)cc(S(=N)(=O)Nc2ccnnc2)c1Oc1ccccc1 (stereo not drawn) [Compound 93, 3-(butylamino)-4-phenoxy-5-[(pyridazin-4-ylamino)sulfonimidoyl]benzoic acid] | 30 to 50 | ≥ 75 |
